Reference: patent publication US20220030868A1, “FUNGICIDAL HALOMETHYL KETONES AND HYDRATES” (FMC CORPORATION, priority 2018, published 2022)

How the values were obtained:
Format in all cases: in vivo
Phakopsora pachyrhizi = test: Test A: test suspension sprayed on soybean seedlings one day before inoculation with Phakopsora pachyrhizi spores (Asian soybean rust), visual disease rating; conditions: 100 = 100% disease control, 0 = no control
Method in brief: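 Compound dissolved in acetone (3% of final volume), then suspended at the stated ppm in 50/50 acetone/water with 250 ppm PEG400 surfactant; sprayed to run-off on soybean seedlings, inoculated with P. pachyrhizi spores next day. Held saturated at 22° C for 24 h, then 8 days at 22° C; visual rating as % disease control versus controls.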

[1] = system: Puccinia recondita f. sp. tritici; test: Test B: test suspension sprayed on wheat seedlings one day before inoculation with Puccinia recondita f. sp. tritici spores (wheat leaf rust), disease rating; conditions: 100 = 100% disease control, 0 = no control
Method in brief: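 Wheat seedlings were sprayed to run-off with compound suspended in 50/50 acetone/water containing 250 ppm PEG400, then inoculated with P. recondita f. sp. tritici spores the next day. Plants were held 24 h in saturated air at 20 °C, then 6 days in a growth chamber at 20 °C. Disease control was rated 0–100% relative to controls, with some entries run at 50 or 10 ppm.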

Uncinula necator = test: Test C: test suspension sprayed on grape seedlings one day before inoculation with Uncinula necator spores (grape powdery mildew), disease rating; conditions: Erysiphe necator, 100 = 100% disease control; for pest or weed control at 50 ppm: 50 ppm test suspension
From the text: General protocol for preparing test suspensions for Tests A-C: the test compounds were first dissolved in acetone in an amount equal to 3% of the final volume and then suspended at the desired concentration (in ppm) in acetone and purified water (50/50 mix by volume) containing 250 ppm of the surfactant PEG400 (polyhydric alcohol esters). The resulting test suspensions were then used in Tests A-C. The test solution was sprayed to the point of run-off on grape seedlings. The following day the seedlings were inoculated with a spore suspension of Uncinula necator (the causal agent of grape powdery mildew) and incubated in a growth chamber at 20° C. for 12 days, after which time disease ratings were made. Results for Tests A-C are given in Table A. In the Table, a rating of 100 indicates 100% disease control and a rating of 0 indicates no disease control (relative to the controls). An asterisk “*” or a double asterisk “**” next to the rating value indicates a 50 ppm or 10 ppm test suspension was used, respectively. A dash (-) indicates the compound was not tested.

[2] = Phakopsora pachyrhizi, 10 ppm test suspension

SMILES | Test A rating (disease control) (Phakopsora pachyrhizi; 10 ppm test suspension) | Test B rating (disease control) ([1]; 10 ppm test suspension) | further results
CCOC(=O)c1cnn(Cc2ccc(OCC3(C(F)(F)F)OCCO3)cc2)c1 [Compound 32, ethyl 1-[[4-[[2-(trifluoromethyl)-1,3-dioxolan-2-yl]methoxy]phenyl]methyl]-1H-pyrazole-4-carboxylate] |  |  | pest or weed control at 50 ppm (Phakopsora pachyrhizi; Phakopsora pachyrhizi, 50 ppm test suspension): 100%; pest or weed control at 50 ppm ([1]; 50 ppm test suspension): 68%; pest or weed control at 50 ppm (Uncinula necator): 100%
CCOC(=O)c1cnn(Cc2ccc(O/C=C(\OCC)C(F)(F)F)cc2)c1 [Compound 64, ethyl 1-[[4-[[(1Z)-2-ethoxy-3,3,3-trifluoro-1-propen-1-yl]oxy]phenyl]methyl]-1H-pyrazole-4-carboxylate] |  |  | pest or weed control at 250 ppm (Phakopsora pachyrhizi; Phakopsora pachyrhizi, 250 ppm test suspension): 100%; pest or weed control at 250 ppm ([1]; 250 ppm test suspension): 99%; pest or weed control at 10 ppm (Uncinula necator; 10 ppm test suspension (double asterisk)): 100%
CC(C)COC(=O)c1cnn(Cc2ccc(OCC3(C(F)(F)F)OCCO3)cc2)c1 [Compound 126, 2-methylpropyl 1-[[4-[[2-(trifluoromethyl)-1,3-dioxolan-2-yl]methoxy]phenyl]methyl]-1H-pyrazole-4-carboxylate] |  |  | pest or weed control at 10 ppm (Phakopsora pachyrhizi; [2]): 100%; pest or weed control at 10 ppm ([1]; 10 ppm test suspension): 0%; pest or weed control at 50 ppm (Uncinula necator): 100%
O=C(OCC1CC1)c1cnn(Cc2ccc(OCC3(C(F)(F)F)OCCO3)cc2)c1 [Compound 127, cyclopropylmethyl 1-[[4-[[2-(trifluoromethyl)-1,3-dioxolan-2-yl]methoxy]phenyl]methyl]-1H-pyrazole-4-carboxylate] |  |  | pest or weed control at 10 ppm (Phakopsora pachyrhizi; [2]): 100%; pest or weed control at 10 ppm ([1]; 10 ppm test suspension): 0%; pest or weed control at 50 ppm (Uncinula necator): 100%
CCOC(=O)c1cnn(CCc2ccc(O/C=C(\OCC)C(F)(F)F)cc2)c1 [Compound 132, ethyl 1-[2-[4-[[(1Z)-2-ethoxy-3,3,3-trifluoro-1-propen-1-yl]oxy]phenyl]ethyl]-1H-pyrazole-4-carboxylate] |  |  | pest or weed control at 10 ppm (Phakopsora pachyrhizi; [2]): 100%; pest or weed control at 10 ppm ([1]; 10 ppm test suspension): 0%; pest or weed control at 50 ppm (Uncinula necator): 98%
COCCOC(=O)c1cnn(Cc2ccc(OCC3(C(F)(F)F)OCCO3)cc2)c1 [Compound 162, 2-methoxyethyl 1-[[4-[[2-(trifluoromethyl)-1,3-dioxolan-2-yl]methoxy]phenyl]methyl]-1H-pyrazole-4-carboxylate] |  |  | pest or weed control at 10 ppm (Phakopsora pachyrhizi; [2]): 100%; pest or weed control at 10 ppm ([1]; 10 ppm test suspension): 0%; pest or weed control at 50 ppm (Uncinula necator): 100%
CC#CCOC(=O)c1cnn(Cc2ccc(OCC3(C(F)(F)F)OCCO3)cc2)c1 [Compound 163, 2-butyn-1-yl 1-[[4-[[2-(trifluoromethyl)-1,3-dioxolan-2-yl]methoxy]phenyl]methyl]-1H-pyrazole-4-carboxylate] |  |  | pest or weed control at 10 ppm (Phakopsora pachyrhizi; [2]): 100%; pest or weed control at 10 ppm ([1]; 10 ppm test suspension): 0%; pest or weed control at 50 ppm (Uncinula necator): 100%
CCO/C(=C\Oc1ccc(Cc2ccnc(SC)n2)cc1)C(F)(F)F [compound 308] |  |  | Test A rating (disease control) (Phakopsora pachyrhizi; 50 ppm test suspension): 25%; Test B rating (disease control) ([1]; 50 ppm test suspension): 0%
CCO/C(=C\Oc1ccc(CN2CCC(C(=O)OC)CC2)cc1)C(F)(F)F [compound 309] | 100% | 0% | 
CCO/C(=C\Oc1ccc(CN2CCC(C#N)CC2)cc1)C(F)(F)F [compound 311] | 0% | 0% | 
CCO/C(=C\Oc1ccc(CN2CCC(OC)CC2)cc1)C(F)(F)F [compound 312] | 0% | 0% | 
CCO/C(=C\Oc1ccc(Cc2ccnc(OCC[Si](C)(C)C)n2)cc1)C(F)(F)F [compound 313] |  |  | Test A rating (disease control) (Phakopsora pachyrhizi; 50 ppm test suspension): 0%; Test B rating (disease control) ([1]; 50 ppm test suspension): 0%
C[Si](C)(C)CCOc1nccc(Cc2ccc(OCC3(C(F)(F)F)OCCO3)cc2)n1 [compound 314] |  |  | Test A rating (disease control) (Phakopsora pachyrhizi; 50 ppm test suspension): 0%; Test B rating (disease control) ([1]; 50 ppm test suspension): 0%
CCOC(=O)c1cnn(-c2ccc(O/C=C(\OCC)C(F)(F)F)cc2)c1 [compound 316] |  |  | Test A rating (disease control) (Phakopsora pachyrhizi; 50 ppm test suspension): 100%; Test B rating (disease control) ([1]; 50 ppm test suspension): 9%
O=C(OC1CCC1)c1cnn(Cc2ccc(OCC3(C(F)(F)F)OCCO3)cc2)c1 [compound 318] | 100% | 0% | 
CCOC(=O)c1cnn(Cc2ccc(OC(F)(F)C3(C(F)(F)F)OCCO3)cc2)c1 [compound 319] |  |  | Test A rating (disease control) (Phakopsora pachyrhizi; 50 ppm test suspension): 100%; Test B rating (disease control) ([1]; 50 ppm test suspension): 41%
CCO/C(=C\Oc1cccc(Cn2cc(C(=O)O)cn2)c1)C(F)(F)F [compound 323] |  |  | Test A rating (disease control) (Phakopsora pachyrhizi; 50 ppm test suspension): 100%; Test B rating (disease control) ([1]; 50 ppm test suspension): 0%
CCCO/C(=C\Oc1cccc(Cn2cc(C(=O)OCC)cn2)c1)C(F)(F)F [compound 324] | 0% | 0% | 
C#CCOC(=O)c1ccn(Cc2ccc(O/C=C(\OCC)C(F)(F)F)cc2)n1 [compound 325] | 100% | 0% | 
CCC#CCOC(=O)c1ccn(Cc2ccc(O/C=C(\OCC)C(F)(F)F)cc2)n1 [compound 326] | 100% | 0% | 

SMILES | Test A rating (disease control) (Phakopsora pachyrhizi; 10 ppm test suspension) | Test B rating (disease control) ([1]; 10 ppm test suspension) | further results
CCO/C(=C\Oc1ccc(Cn2ccc(C(=O)OC(C)C)n2)cc1)C(F)(F)F [compound 327] | 100% | 0% | 
CCO/C(=C\Oc1cccc(Cn2cc(C(=O)OC(C)C)cn2)c1)C(F)(F)F [compound 332] | 100% | 0% | 
C=CCOC(=O)c1cnn(Cc2cccc(O/C=C(\OCC)C(F)(F)F)c2)c1 [compound 333] | 100% | 0% | 
CCO/C(=C\Oc1cccc(Cn2cc(C(=O)OCC(C)C)cn2)c1)C(F)(F)F [compound 334] | 100% | 0% | 
C=C(C)COC(=O)c1cnn(Cc2cccc(O/C=C(\OCC)C(F)(F)F)c2)c1 [compound 335] | 100% | 0% | 
C#CCOC(=O)c1cnn(Cc2cccc(O/C=C(\OCC)C(F)(F)F)c2)c1 [compound 336] | 100% | 0% | 
CCO/C(=C\Oc1cccc(Cn2cc(C(=O)OCC(C)=O)cn2)c1)C(F)(F)F [compound 337] | 100% | 0% | 
CCO/C(=C\Oc1cccc(Cn2cc(C(=O)OCCCCl)cn2)c1)C(F)(F)F [compound 338] | 100% | 0% | 
CCCCOC(=O)c1cnn(Cc2cccc(O/C=C(\OCC)C(F)(F)F)c2)c1 [compound 339] | 100% | 0% | 
CCO/C(=C\Oc1cccc(Cn2cc(C(=O)OCCOC)cn2)c1)C(F)(F)F [compound 340] | 100% | 0% | 
CCO/C(=C\Oc1cccc(Cn2cc(C(=O)OCC3CC3)cn2)c1)C(F)(F)F [compound 341] | 100% | 0% | 
CCO/C(=C\Oc1cccc(Cn2cc(C(=O)OCC3CCC3)cn2)c1)C(F)(F)F [compound 342] | 100% | 0% | 
CCNC(=O)c1cnn(Cc2cccc(C/C=C(\OCC)C(F)(F)F)c2)c1 [compound 343] | 0% | 0% | 
CCCCOC(=O)c1ccn(Cc2ccc(O/C=C(\OCC)C(F)(F)F)cc2)n1 [compound 356] | 100% | 0% | 
CCO/C(=C\Oc1ccc(Cn2ccc(C(=O)OCC(C)C)n2)cc1)C(F)(F)F [compound 357] | 100% | 9% | 
C=C(C)COC(=O)c1ccn(Cc2ccc(O/C=C(\OCC)C(F)(F)F)cc2)n1 [compound 358] | 100% | 0% | 
CCO/C(=C\Oc1ccc(Cn2ccc(C(=O)OCC(C)=O)n2)cc1)C(F)(F)F [compound 359] | 100% | 0% | 
CCO/C(=C\Oc1ccc(Cn2ccc(C(=O)OCCOC)n2)cc1)C(F)(F)F [compound 360] | 100% | 0% | 
CCO/C(=C\Oc1ccc(Cn2ccc(C(=O)OCC3CCC3)n2)cc1)C(F)(F)F [compound 361] | 100% | 0% | 
CCO/C(=C\Oc1ccc(Cn2ccc(C(=O)OCCCCl)n2)cc1)C(F)(F)F [compound 362] | 100% | 0% | 
